14 molecules from US12195439B1, “C1-substituted isopropylamine fused heterocyclic mescaline derivatives” (Enveric Biosciences Canada Inc., priority 2022, dated 2025) can be followed below.

Read-outs that look alike come from different tables or passages of the source.

Test [1] has as its target T1, dopamine transporter (DAT) (Homo sapiens, UniProt Q01959).
T1 construct: host or cells: CHO cells (membrane preparation)
The experiment in a line: Eurofins Cerep competition binding assay at dopamine transporter. As to conditions: for DAT, percent of control-specific binding: 10 μM test ligand, [3H]BTCP, recombinant transporter from CHO cells; for inhibition at 10 µM: read-out: DAT, percent of control-specific binding, 10 μM test ligand, [3H]BTCP, recombinant transporter from CHO cells.

Another test concerns the target T2, 5-HT2B receptor (Homo sapiens, UniProt P41595).
T2 construct: host or cells: CHO cells (membrane preparation)
The experiment in a line: Eurofins Cerep competition binding assay at 5-HT2B receptor. As to conditions: 10 μM test ligand, [3H]mesulergine, recombinant receptor from CHO cells; for inhibition at 10 µM: read-out: HT2B, percent of control-specific binding.

Test [2] addresses T3, norepinephrine transporter (NET) (Homo sapiens, UniProt P23975).
T3 construct: host or cells: CHO cells (membrane preparation)
As to the kind of experiment: Eurofins Cerep competition binding assay at norepinephrine transporter. The following applies: for NET, percent of control-specific binding: 10 μM test ligand, [3H]nisoxetine, recombinant transporter from CHO cells; for inhibition at 10 µM: read-out: NET, percent of control-specific binding, 10 μM test ligand, [3H]nisoxetine, recombinant transporter from CHO cells.

Another test concerns the target T4, alpha2A receptor (Homo sapiens, UniProt P08913).
T4 construct: host or cells: CHO cells (membrane preparation)
T4 sequence (P08913 1-465): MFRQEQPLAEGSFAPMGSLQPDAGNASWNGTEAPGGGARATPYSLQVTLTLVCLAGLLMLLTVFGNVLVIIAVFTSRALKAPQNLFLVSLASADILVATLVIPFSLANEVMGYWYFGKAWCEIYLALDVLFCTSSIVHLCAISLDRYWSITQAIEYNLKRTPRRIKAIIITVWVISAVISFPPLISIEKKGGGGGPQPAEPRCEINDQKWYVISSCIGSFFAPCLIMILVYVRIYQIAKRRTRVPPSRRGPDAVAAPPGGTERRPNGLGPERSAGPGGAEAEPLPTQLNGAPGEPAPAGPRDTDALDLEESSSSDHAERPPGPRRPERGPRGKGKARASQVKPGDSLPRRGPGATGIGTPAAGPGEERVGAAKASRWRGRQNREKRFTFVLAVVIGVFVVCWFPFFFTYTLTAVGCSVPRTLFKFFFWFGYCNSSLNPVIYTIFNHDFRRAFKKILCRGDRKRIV
As to the kind of experiment: Eurofins Cerep competition binding assay at alpha2A receptor. As to conditions: 10 μM test ligand, [3H]RX 821002, recombinant receptor from CHO cells; for inhibition at 10 µM: read-out: α-2A, percent of control-specific binding.

The target of test [3] is T5, serotonin transporter (SERT) (Homo sapiens, UniProt P31645).
T5 construct: host or cells: CHO cells (membrane preparation)
The experiment in a line: biochemical. The format is binding. The following applies: for SERT, percent of control-specific binding: 10 µM; for inhibition at 10 µM: read-out: SERT, percent of control-specific binding.

The target of the next test is T6, 5-HT2C receptor (Homo sapiens, UniProt P28335).
T6 construct: host or cells: HEK-293 cells (membrane preparation)
T6 sequence (P28335 33-458): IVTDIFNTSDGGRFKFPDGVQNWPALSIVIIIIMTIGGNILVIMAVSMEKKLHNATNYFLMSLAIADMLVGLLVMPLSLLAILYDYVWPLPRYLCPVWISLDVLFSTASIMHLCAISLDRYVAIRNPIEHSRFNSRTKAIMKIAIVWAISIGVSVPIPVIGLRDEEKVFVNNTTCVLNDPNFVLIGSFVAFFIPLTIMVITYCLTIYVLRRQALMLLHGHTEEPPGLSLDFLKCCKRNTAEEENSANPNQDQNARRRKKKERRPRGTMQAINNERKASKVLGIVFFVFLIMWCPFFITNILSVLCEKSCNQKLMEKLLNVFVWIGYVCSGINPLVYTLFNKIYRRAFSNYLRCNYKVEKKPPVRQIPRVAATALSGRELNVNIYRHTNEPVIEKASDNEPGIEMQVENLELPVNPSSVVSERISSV
As to the kind of experiment: Eurofins Cerep competition binding assay at 5-HT2C receptor. The following applies: 10 μM test ligand, [125I](±)DOI, recombinant receptor from HEK-293 cells; for inhibition at 10 µM: read-out: HT2C, percent of control-specific binding.

The next test has as its target T7, MT1 receptor (Homo sapiens, UniProt P48039).
T7 construct: host or cells: CHO cells (membrane preparation)
The experiment in a line: Eurofins Cerep competition binding assay at MT1 receptor. As to conditions: for MT1, percent of control-specific binding: 10 μM test ligand, [125I]2-iodomelatonin, recombinant receptor from CHO cells.

Test [4] concerns the target T8, 5-HT1A receptor (Homo sapiens, UniProt P08908).
T8 construct: purchased Perkin Elmer 6110501400UA
T8 sequence (P08908 1-422): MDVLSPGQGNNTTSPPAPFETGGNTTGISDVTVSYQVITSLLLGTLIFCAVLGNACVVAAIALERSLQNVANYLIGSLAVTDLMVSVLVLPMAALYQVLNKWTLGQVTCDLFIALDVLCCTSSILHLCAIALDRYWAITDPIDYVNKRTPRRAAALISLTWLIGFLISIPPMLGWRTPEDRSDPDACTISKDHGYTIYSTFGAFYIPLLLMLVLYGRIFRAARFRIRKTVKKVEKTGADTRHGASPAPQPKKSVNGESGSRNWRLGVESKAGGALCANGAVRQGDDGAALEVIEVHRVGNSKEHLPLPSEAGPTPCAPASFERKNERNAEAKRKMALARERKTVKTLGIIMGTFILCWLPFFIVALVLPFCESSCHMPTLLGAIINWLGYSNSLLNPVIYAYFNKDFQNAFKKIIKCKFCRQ
As to the kind of experiment: Eurofins Cerep competition binding assay at 5-HT1A receptor. As to conditions: 10 μM test ligand, [3H]8-OH-DPAT, recombinant receptor from HEK-293 cells; for inhibition at 10 µM: read-out: HT1A, percent of control-specific binding.

The target in another test is T9, 5-HT7 receptor (Homo sapiens, UniProt P34969).
T9 construct: host or cells: HEK-293 cells (membrane preparation)
The experiment in a line: Eurofins Cerep competition binding assay at 5-HT7 receptor. As to conditions: 10 μM test ligand, [3H]LSD, recombinant receptor from HEK-293 cells; for inhibition at 10 µM: read-out: HT7, percent of control-specific binding.

Test [5] concerns the target T8, 5-HT1A receptor. As to the kind of experiment: 5-HT1A receptor radioligand competition assay (SPA). The format is binding. As to conditions: 5-HT1A, Ki, competition with 0.5 nM [3H]8-hydroxy-DPAT, membranes containing 5-HT1A. A general note: Loss of bound radioactivity is the signal in a displacement assay; it reports binding, not function.
Where [6] appears, read: read-out: MT1, percent of control-specific binding.
The mark [7] stands for this setting: read-out: MT1, percent of control-specific binding, 10 μM test ligand, [125I]2-iodomelatonin, recombinant receptor from CHO cells.

T1 sequence (Q01959 whole entry): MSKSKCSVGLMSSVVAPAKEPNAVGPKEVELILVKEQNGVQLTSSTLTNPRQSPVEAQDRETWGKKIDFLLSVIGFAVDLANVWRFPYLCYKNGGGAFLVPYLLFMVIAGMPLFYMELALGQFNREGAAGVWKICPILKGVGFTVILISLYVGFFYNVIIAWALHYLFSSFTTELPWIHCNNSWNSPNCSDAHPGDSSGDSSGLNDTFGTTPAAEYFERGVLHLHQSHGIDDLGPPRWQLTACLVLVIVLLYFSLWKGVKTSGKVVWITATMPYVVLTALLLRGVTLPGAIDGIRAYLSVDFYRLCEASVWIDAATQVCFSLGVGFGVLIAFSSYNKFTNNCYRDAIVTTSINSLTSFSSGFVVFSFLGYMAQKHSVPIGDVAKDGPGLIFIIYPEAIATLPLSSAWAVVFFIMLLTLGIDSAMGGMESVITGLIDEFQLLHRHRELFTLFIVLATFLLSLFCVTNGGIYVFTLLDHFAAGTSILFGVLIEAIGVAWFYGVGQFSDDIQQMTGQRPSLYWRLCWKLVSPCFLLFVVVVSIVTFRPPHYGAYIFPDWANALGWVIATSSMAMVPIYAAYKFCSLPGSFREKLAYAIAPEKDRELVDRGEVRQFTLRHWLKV
T2 sequence (P41595 whole entry): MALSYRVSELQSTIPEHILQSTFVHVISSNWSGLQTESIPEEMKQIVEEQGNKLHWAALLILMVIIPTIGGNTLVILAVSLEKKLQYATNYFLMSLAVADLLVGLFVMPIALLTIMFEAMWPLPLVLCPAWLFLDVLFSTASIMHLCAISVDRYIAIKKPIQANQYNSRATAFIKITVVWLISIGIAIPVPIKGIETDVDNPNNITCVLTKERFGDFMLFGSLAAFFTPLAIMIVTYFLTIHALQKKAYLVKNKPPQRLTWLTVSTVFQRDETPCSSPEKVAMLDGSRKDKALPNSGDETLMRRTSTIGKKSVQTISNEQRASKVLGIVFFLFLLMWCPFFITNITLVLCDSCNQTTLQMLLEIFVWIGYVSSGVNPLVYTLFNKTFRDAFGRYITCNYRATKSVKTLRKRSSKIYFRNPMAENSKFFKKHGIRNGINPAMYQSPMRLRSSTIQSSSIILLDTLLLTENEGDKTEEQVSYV
T3 sequence (P23975 whole entry): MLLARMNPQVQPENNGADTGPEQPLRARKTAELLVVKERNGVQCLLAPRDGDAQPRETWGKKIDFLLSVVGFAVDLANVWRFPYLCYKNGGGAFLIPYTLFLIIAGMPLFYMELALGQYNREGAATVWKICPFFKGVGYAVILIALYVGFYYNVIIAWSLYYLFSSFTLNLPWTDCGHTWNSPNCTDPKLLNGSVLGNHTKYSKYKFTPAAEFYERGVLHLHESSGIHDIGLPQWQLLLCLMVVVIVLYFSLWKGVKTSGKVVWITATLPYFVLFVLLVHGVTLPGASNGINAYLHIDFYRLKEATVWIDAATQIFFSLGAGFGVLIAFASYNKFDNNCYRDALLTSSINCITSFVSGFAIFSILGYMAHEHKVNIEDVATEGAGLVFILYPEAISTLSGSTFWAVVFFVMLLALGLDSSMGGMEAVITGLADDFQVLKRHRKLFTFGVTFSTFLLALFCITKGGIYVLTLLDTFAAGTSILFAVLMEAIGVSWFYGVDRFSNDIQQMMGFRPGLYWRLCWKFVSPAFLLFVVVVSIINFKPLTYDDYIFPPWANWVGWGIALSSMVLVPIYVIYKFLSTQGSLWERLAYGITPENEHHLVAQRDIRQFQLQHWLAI
T9 sequence (P34969 whole entry): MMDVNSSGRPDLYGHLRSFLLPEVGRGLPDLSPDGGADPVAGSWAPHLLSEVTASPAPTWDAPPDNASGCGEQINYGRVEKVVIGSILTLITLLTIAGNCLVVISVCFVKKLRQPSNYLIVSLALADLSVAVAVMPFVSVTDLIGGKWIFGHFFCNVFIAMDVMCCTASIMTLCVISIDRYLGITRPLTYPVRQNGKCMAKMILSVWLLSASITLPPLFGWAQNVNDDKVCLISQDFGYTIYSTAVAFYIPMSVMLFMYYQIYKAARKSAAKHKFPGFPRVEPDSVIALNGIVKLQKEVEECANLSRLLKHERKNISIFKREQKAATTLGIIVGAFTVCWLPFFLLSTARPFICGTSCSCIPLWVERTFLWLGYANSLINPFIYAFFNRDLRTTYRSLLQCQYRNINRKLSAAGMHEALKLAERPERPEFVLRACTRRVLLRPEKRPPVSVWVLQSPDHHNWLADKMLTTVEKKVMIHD
T7 sequence (P48039 whole entry): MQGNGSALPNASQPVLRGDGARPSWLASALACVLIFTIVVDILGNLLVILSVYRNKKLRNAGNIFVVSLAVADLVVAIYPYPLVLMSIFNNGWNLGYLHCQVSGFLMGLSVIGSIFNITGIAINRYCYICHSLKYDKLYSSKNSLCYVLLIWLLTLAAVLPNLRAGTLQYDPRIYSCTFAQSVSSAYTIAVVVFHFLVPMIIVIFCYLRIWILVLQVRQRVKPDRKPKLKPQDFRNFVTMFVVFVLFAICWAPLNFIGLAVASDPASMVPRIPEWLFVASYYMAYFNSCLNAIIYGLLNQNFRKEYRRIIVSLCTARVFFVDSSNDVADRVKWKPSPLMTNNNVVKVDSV
T5 sequence (P31645 whole entry): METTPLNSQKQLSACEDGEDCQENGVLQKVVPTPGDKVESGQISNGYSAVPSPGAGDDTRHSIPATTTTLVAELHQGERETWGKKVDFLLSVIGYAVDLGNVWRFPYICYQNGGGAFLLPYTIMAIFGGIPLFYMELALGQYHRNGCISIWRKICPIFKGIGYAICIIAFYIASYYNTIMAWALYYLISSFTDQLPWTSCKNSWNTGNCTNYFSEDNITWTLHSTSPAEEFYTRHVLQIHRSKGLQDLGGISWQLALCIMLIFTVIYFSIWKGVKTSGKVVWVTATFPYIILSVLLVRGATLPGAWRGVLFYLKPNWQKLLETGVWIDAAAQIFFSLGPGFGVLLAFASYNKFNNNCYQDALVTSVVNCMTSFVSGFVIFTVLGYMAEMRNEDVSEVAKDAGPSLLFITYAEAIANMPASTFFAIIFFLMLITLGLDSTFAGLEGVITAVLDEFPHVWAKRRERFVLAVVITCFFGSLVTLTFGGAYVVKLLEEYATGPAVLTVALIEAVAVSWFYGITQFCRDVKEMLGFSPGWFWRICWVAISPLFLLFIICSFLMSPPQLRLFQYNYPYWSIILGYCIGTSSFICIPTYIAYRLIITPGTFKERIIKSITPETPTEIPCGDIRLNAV

What is called Ki is a measure of affinity in units of concentration, obtained from inhibition or displacement. As for `CC(C(O)c1ccc2c(c1)OCO2)N(C)Cc1ccccc1` (single isomer, unassigned) [B(III) as diast. (iv)], the “DAT, percent of control-specific binding” value in test [1] (10 µM) was 76%. The “HT2B, percent of control-specific binding” value on 5-HT2B receptor (10 µM) is given as 28%. In addition, the “NET, percent of control-specific binding” value in test [2] (10 µM) worked out at 25%. Further, the “α-2A, percent of control-specific binding” value on alpha2A receptor (10 µM) was 42%. Besides, the “SERT, percent of control-specific binding” value in test [3] was found to be 44%. At 5-HT2C receptor (10 µM), the “HT2C, percent of control-specific binding” value is reported as 14%. Further, the “MT1, percent of control-specific binding” value at MT1 receptor (10 µM) was 15%. Further, the “HT1A, percent of control-specific binding” value on 5-HT1A receptor [4] (10 µM) is recorded as 22%. In addition, the “HT7, percent of control-specific binding” value on 5-HT7 receptor (10 µM) came out at 23%. This molecule returned an inhibition constant Ki at 5-HT1A receptor [5] of 16.9 µM.

For `COc1ccc2cccc(CCNC(C)=O)c2c1` [Agomelatine, agomelatine], the inhibition at 10 µM in test [1] worked out at 1%; at 5-HT2B receptor it was 93%; in [2] it was 1%; at alpha2A receptor, 2%; in test [3] it was 30%; at 5-HT2C receptor, 92%. Moreover, the results for the inhibition at 10 µM on MT1 receptor (setting [6]), at 5-HT1A receptor [4] and at 5-HT7 receptor were 99%, 58% and 20%, respectively.

The molecule `CC(C(O)c1ccc2c(c1)OCO2)N(C)Cc1ccccc1` (stereo not drawn) [B(III) as diast. (iv)] returned a Ki at 5-HT1A receptor [5] of 16.9 µM.

As for `CC(NC(C)(C)C)C(=O)c1cccc(Cl)c1` (stereo not drawn) [Bupropion, bupropion], the inhibition at 10 µM is 92% in [1]; -2% at 5-HT2B receptor; 2% on alpha2A receptor; 1% on 5-HT2C receptor; 83% at MT1 receptor (setting [7]); -1% on 5-HT1A receptor [4]. On 5-HT7 receptor, the inhibition at 10 µM stood at 4%.

At 5-HT1A receptor [5], `C[S+](C)[O-]` [DMSO, dimethylsulfoxide] gave a Ki of more than 1000 µM.

`COc1cc(CC(C)N)c(OC)cc1Br` (stereo not drawn) [DOB]: the “DAT, percent of control-specific binding” value in [1] is 3%. Moreover, the “HT2B, percent of control-specific binding” value on 5-HT2B receptor was 97%. In test [2], the “NET, percent of control-specific binding” value stood at 6%. The “α-2A, percent of control-specific binding” value on alpha2A receptor is reported as 66%. Besides, the “SERT, percent of control-specific binding” value in test [3] was 53%. For the same molecule, the “MT1, percent of control-specific binding” value at MT1 receptor is on record as −3%. For the same molecule, the “HT1A, percent of control-specific binding” value on 5-HT1A receptor [4] was found to be 75%. The “HT7, percent of control-specific binding” value at 5-HT7 receptor was 65%.

Regarding `CNCC[C@H](Oc1cccc2ccccc12)c1cccs1` [Duloxetine, duloxetine], the inhibition at 10 µM at 5-HT2B receptor worked out at 95%; on alpha2A receptor, 54%; on 5-HT2C receptor it was 92%; on MT1 receptor (setting [7]), 23%; on 5-HT1A receptor [4], 95%.

In turn, `CC(NCc1ccccc1)C(C)c1ccc2c(c1)OCO2` (stereo not drawn) [Ex(VI) as diast. (xi) and (xii)] displayed a Ki on 5-HT1A receptor [5] of 65.9 µM.

For the molecule `CN(C)CCCN1c2ccccc2CCc2ccccc21` [Imipramine, imipramine], the inhibition at 10 µM in [1] is 23%; on 5-HT2B receptor, 94%; in [2], 99%; at alpha2A receptor it was 57%; in test [3] it was 98%; at 5-HT2C receptor, 98%. Besides, the inhibition at 10 µM came to 29% on MT1 receptor (setting [7]), 34% on 5-HT1A receptor [4] and 93% at 5-HT7 receptor.

`COc1ccc2[nH]cc(CCNC(C)=O)c2c1` [Melatonin, melatonin]: the inhibition at 10 µM is 4% in [1]; 52% at 5-HT2B receptor; -2% in test [2]; -7% on alpha2A receptor; 19% at 5-HT2C receptor; 98% on MT1 receptor (setting [6]). The inhibition at 10 µM on 5-HT1A receptor [4] amounted to 46%; on 5-HT7 receptor, 8%.

As to `O=c1n(CCCN2CCN(c3cccc(Cl)c3)CC2)nc2ccccn12` [Trazodone, trazodone], the inhibition at 10 µM is 24% in [1]; 97% at 5-HT2B receptor; -1% in test [2]; 91% on alpha2A receptor; 93% on 5-HT2C receptor; 14% at MT1 receptor (setting [7]). In addition, the inhibition at 10 µM on 5-HT1A receptor [4] was determined as 97%; on 5-HT7 receptor, 99%.

With `N#Cc1ccc2[nH]cc(CCCCN3CCN(c4ccc5oc(C(N)=O)cc5c4)CC3)c2c1` [Vilazodone, vilazodone], the inhibition at 10 µM in test [1] was determined as 98%; on 5-HT2B receptor, 96%; in [2], 99%; at alpha2A receptor, 65%; in [3], 100%; at 5-HT2C receptor, 92%. Besides, the values for the inhibition at 10 µM on MT1 receptor (setting [7]), on 5-HT1A receptor [4] and at 5-HT7 receptor were 84%, 99% and 83%, respectively.

Take `NCCc1c[nH]c2ccc(O)cc12` [serotonin]: the inhibition at 10 µM in test [1] is 8%; in test [2], -3%; at alpha2A receptor it was 18%; on MT1 receptor (setting [7]), 7%; at 5-HT1A receptor [4], 100%; at 5-HT7 receptor, 100%.

For the molecule `Cc1ccc(Sc2ccccc2N2CCNCC2)c(C)c1` [vortioxetine], the inhibition at 10 µM amounted to 90% in test [1]; 97% at 5-HT2B receptor; 99% in [2]; 62% at alpha2A receptor; 101% in test [3]; 99% at 5-HT2C receptor. The inhibition at 10 µM at MT1 receptor (setting [7]) amounted to 26%; at 5-HT7 receptor, 100%.
